# Measured values as given in PubChem BioAssay (NCI).
#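 These data come from cells grown in 96-well plates and exposed to compound for 48 hours at five concentrations. TGI: total growth inhibition.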
# Key:
# Assay in all cases: DTP human tumour cell line panel, 48 h
# [1] = test system: A549 NSCLC
# [2] = test system: ACHN renal
# [3] = test system: HS 578T breast
# [4] = test system: SW-620 colon
# [5] = test system: TK-10 renal
# [6] = test system: HCT-15 colon
# [7] = test system: M14 melanoma
# [8] = test system: NCI-H460 lung
# [9] = test system: SK-MEL-5 melanoma
# [10] = test system: COLO 205 colon
# [11] = test system: NCI/ADR-RES ovarian
# [12] = test system: HT29 colon
# [13] = test system: K-562 leukemia
# [14] = test system: HOP-92 NSCLC
# [15] = test system: MDA-MB-435
# [16] = test system: SNB-75 CNS
# [17] = test system: IGROV1 ovarian
# [18] = test system: NCI-H226 lung
# [19] = test system: CAKI-1 renal
# [20] = test system: PC-3 prostate
structure (smiles),measurement,setting,value
CN(/N=C/c1ccc(Cl)c(Cl)c1)C1=NCCCCN1,TGI,[1],> 100 µM
same,TGI,[2],> 100 µM
same,TGI,[3],> 100 µM
same,TGI,[4],38 µM
same,TGI,[5],> 100 µM
same,TGI,[6],81.6 µM
same,TGI,[7],29.9 µM
same,TGI,[8],> 100 µM
same,TGI,[9],27.8 µM
same,TGI,[10],37.2 µM
same,TGI,[11],> 100 µM
same,TGI,[12],> 100 µM
same,TGI,[13],69.3 µM
same,TGI,[14],49.6 µM
same,TGI,[15],36 µM
same,TGI,[16],> 100 µM
same,TGI,[17],> 100 µM
same,TGI,[18],39.2 µM
same,TGI,[19],82.7 µM
same,TGI,[20],> 100 µM
